Read-outs that look alike come from different tables or passages of the source. Where a SMILES comes first, the peptide text is derived from it. Where no end group is shown, it is not given here. [ ]: non-standard residue; d: D form. Phe(4-NO2) = N[C@@H](Cc1ccc([N+](=O)[O-])cc1)C(=O)O; Phe(4-NH2) = Nc1ccc(C[C@H](N)C(=O)O)cc1; Phe(4-F) = N[C@@H](Cc1ccc(F)cc1)C(=O)O; Dmt = Cc1cc(O)cc(C)c1C[C@H](N)C(=O)O; Dab = NCC[C@H](N)C(=O)O; Nva = CCC[C@H](N)C(=O)O
Assays:
[1] = target: T1, human NOP receptor (Homo sapiens, UniProt P41146); assay: Calcium mobilization, NOP receptor; assay type: cell-based; settings: for NOP pEC50 (CL95%): CHO cells coexpressing human NOP and Gαqi5, Fluo-4 AM, 37 °C, mean of at least three experiments in duplicate, CL95% in brackets; for NOP Emax ± S.E.M. / Emax: mean ± SEM of at least three experiments in duplicate; for NOP/mu CR (concentration ratio): calcium mobilization, NOP versus mu; for Emax: SEM
T1 construct: expressed in transfected cells; host or cells: CHO cells stably coexpressing the receptor and chimeric Gαqi5
T1 sequence (P41146 whole entry): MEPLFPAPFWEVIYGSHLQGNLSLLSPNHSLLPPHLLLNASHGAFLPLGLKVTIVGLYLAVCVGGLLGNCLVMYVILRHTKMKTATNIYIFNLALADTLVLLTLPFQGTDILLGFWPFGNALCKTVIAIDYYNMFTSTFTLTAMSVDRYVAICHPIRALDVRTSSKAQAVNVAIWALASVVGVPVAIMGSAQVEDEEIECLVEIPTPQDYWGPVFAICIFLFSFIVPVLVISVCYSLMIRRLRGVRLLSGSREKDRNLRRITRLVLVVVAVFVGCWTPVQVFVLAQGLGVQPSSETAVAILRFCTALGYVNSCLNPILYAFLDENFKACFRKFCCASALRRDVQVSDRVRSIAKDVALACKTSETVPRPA
Experimental: CHO cells stably coexpressing the human NOP or kappa or the mu receptor and the C-terminally modified Gαqi5 and CHO cells coexpressing the delta receptor and the GαqG66Di5 protein were generated and cultured as described previously.[45],[46] Cells were maintained in Dulbecco’s modified Eagle’s medium/nutrient mixture F-12 (DEMEM/F-12) supplemented with 10% FBS, 100 U/mL penicillin and 100 μg/mL streptomycin, 100 μg/mL hygromicin B, and 200 μg/mL G418 and cultured at 37 °C in 5% CO2 humidified air. Cells were seeded at a density of 50,000 cells/well into 96-well black, clear-bottom plates. The following day, the cells were incubated with Hanks’ balanced salt solution (HBSS) supplemented with 2.5 mM probenecid, 3 μM of the calcium-sensitive fluorescent dye Fluo-4 AM, and 0.01% pluronic acid for 30 min at 37 °C. After that time, the loading solution was aspirated and 100 μL/well of HBSS supplemented with 20 mM HEPES, 2.5 mM probenecid, and 500 μM brilliant black was added. Serial dilutions were carried out in HBSS/HEPES (20 mM) buffer (containing 0.02% BSA fraction V). After placing both plates (cell culture and master plate) into the fluorometric imaging plate reader FlexStation II (Molecular Devices, Sunnyvale, CA), fluorescence changes were measured. On-line additions were carried out in a volume of 50 μL/well. To facilitate drug diffusion into the wells, the present studies were performed at 37 °C. Maximum change in fluorescence, expressed as percent over the baseline fluorescence, was used to determine agonist response.
(§1) The pharmacological terminology adopted in this paper is consistent with IUPHAR recommendations.[59] All data are expressed as the mean ± standard error of the mean (SEM) of at least three experiments performed in duplicate. […] Concentration-response curves to agonists were fitted to the classical four-parameter logistic nonlinear regression model:
(§2) Effect = Baseline + (Emax – Baseline)/(1 + 10^(LogEC50 – Log[compound]) × Hillslope). Curve fitting was performed using PRISM 6.0 (GraphPad Software Inc., San Diego).

[2] = target: T2, human mu receptor (Homo sapiens, UniProt P35372); assay: Calcium mobilization, mu opioid receptor; assay type: cell-based; settings: for Emax / activation at 10 µM: percent over the baseline fluorescence, SEM; for Emax: mean ± SEM of at least three experiments in duplicate; for mu pEC50 (CL95%): CHO cells coexpressing human mu receptor and Gαqi5, Fluo-4 AM, 37 °C, mean of at least three experiments in duplicate, CL95% in brackets; for pEC50_mu: molecular formula strings CSV, repeats calcium mobilization values of Tables 1-3; for activation at 10 µM: mean ± SEM
T2 construct: expressed in transfected cells; host or cells: CHO cells stably coexpressing the receptor and chimeric Gαqi5
T2 sequence (P35372 whole entry): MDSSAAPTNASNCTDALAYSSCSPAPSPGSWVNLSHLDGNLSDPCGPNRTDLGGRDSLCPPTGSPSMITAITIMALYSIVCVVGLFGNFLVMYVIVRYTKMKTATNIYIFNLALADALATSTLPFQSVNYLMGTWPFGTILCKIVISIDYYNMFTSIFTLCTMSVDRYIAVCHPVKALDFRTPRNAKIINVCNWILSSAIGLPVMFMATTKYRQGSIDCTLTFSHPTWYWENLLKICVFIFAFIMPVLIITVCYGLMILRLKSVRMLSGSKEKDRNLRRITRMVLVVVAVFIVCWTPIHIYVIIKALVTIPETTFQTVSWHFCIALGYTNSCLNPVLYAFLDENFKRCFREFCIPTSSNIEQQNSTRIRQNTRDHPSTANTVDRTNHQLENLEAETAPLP

[3] = target: T1, human NOP receptor; assay: Dynamic mass redistribution (DMR), NOP receptor; assay type: cell-based
Experimental: CHO cells stably expressing the human NOP and mu receptors were kindly provided by D.G. Lambert (University of Leicester, UK). Cells were cultured in DMEM/F-12 medium supplemented with 10% FBS, 100 U/mL penicillin, 100 μg/mL streptomycin, and 2 mmol/L L-glutamine. The medium was supplemented with 400 μg/mL G418 to maintain expression. Cells were cultured at 37 °C in 5% CO2 humidified air. For DMR measurements, the label-free EnSight Multimode Plate Reader (Perkin Elmer, MA, US) was used. Cells were seeded 15,000 cells/well in a volume of 30 μL onto fibronectin-coated 384-well DMR microplates and cultured for 20 h to obtain confluent monolayers. Cells were starved in the assay buffer (HBSS with 20 mM HEPES, 0.01% BSA fraction V) for 90 min before the test. Serial dilutions were made in the assay buffer. After reading the baseline, compounds were added in a volume of 10 μL; then, DMR changes were recorded for 60 min. Responses were described as picometer (pm) shifts over time (sec) following subtraction of values from vehicle-treated wells. Maximum picometer (pm) modification (peak) was used to generate concentration response curves. […]
The pharmacological terminology adopted in this paper is consistent with IUPHAR recommendations.[59] All data are expressed as the mean ± standard error of the mean (SEM) of at least three experiments performed in duplicate. […]

[4] = target: T2, human mu receptor; assay: Dynamic mass redistribution (DMR), mu receptor; assay type: cell-based; settings: for mu Emax ± S.E.M.: maximum picometer (pm) modification (peak), mean ± SEM of at least three experiments in duplicate
Experimental: CHO cells stably expressing the human NOP and mu receptors were kindly provided by D.G. Lambert (University of Leicester, UK). Cells were cultured in DMEM/F-12 medium supplemented with 10% FBS, 100 U/mL penicillin, 100 μg/mL streptomycin, and 2 mmol/L L-glutamine. The medium was supplemented with 400 μg/mL G418 to maintain expression. Cells were cultured at 37 °C in 5% CO2 humidified air. For DMR measurements, the label-free EnSight Multimode Plate Reader (Perkin Elmer, MA, US) was used. Cells were seeded 15,000 cells/well in a volume of 30 μL onto fibronectin-coated 384-well DMR microplates and cultured for 20 h to obtain confluent monolayers. Cells were starved in the assay buffer (HBSS with 20 mM HEPES, 0.01% BSA fraction V) for 90 min before the test. Serial dilutions were made in the assay buffer. After reading the baseline, compounds were added in a volume of 10 μL; then, DMR changes were recorded for 60 min. Responses were described as picometer (pm) shifts over time (sec) following subtraction of values from vehicle-treated wells. Maximum picometer (pm) modification (peak) was used to generate concentration response curves. All the experiments were carried out at 37 °C.
as §1, §2

[5] = tested on: NOP, mu, kappa, delta receptors; settings: functional studies with human recombinant receptors; cited from earlier work
From the text: Finally, the effects of [Dmt^1,5]N/OFQ(1-13)-NH2 at kappa and delta opioid receptors were investigated. […] Of note, the kappa potency of [Dmt^1,5]N/OFQ(1-13)-NH2 was similar to that shown at NOP and mu receptors. […] Moreover, similar results have b ...

[6] = read-out: mu Emax ± S.E.M, Table 1 series
[7] = read-out: mu Emax ± S.E.M., Table 3 series
[8] = read-out: NOP Emax ± S.E.M., Table 1 series, maximum change in fluorescence as percent over the baseline fluorescence
[9] = read-out: NOP Emax ± S.E.M., Table 2 series, percent over the baseline fluorescence
[10] = read-out: NOP Emax ± S.E.M., Table 3 series, percent over the baseline fluorescence
[11] = read-out: mu effect at 10 μM (crc incomplete), Table 1 series
[12] = read-out: mu effect at 10 μM (crc incomplete), Table 2 series

Molecule	NOP pEC50 (CL95%) ([1]; Table 1 series, FlexStation II)	Emax [2, 7] [%]	NOP/mu CR (concentration ratio) ([1]; Table 1 series)	Emax [1, 8] [%]	Emax [1, 9] [%]	mu pEC50 (CL95%) ([2]; Table 1 series)	mu pEC50 (CL95%) ([2]; Table 2 series)	pEC50_mu [2]	activation at 10 µM [2, 11] [%]	activation at 10 µM [2, 12] [%]	also measured
C[C@@H](NC(=O)[C@@H](N)Cc1ccc(O)cc1)C(=O)N[C@@H](Cc1ccccc1)C(=O)NCC(=O)N[C@@H](Cc1ccc(O)cc1)C(=O)N1CCC[C@H]1C(=O)N[C@@H](CO)C(N)=O [Compound 2, dermorphin, reference compound]	inactive	359 ± 18									NOP Emax ± S.E.M. ([1]; Table 1 series, maximum change in fluorescence as percent over the baseline fluorescence): inactive; NOP pEC50 (CL95%) ([1]; Table 2 series): inactive; NOP Emax ± S.E.M. ([1]; Table 2 series, percent over the baseline fluorescence): inactive; NOP pEC50 (CL95%) ([1]; Table 3 series): inactive; NOP Emax ± S.E.M. ([1]; Table 3 series, percent over the baseline fluorescence): inactive; pEC50_NOP ([1]; molecular formula strings CSV, repeats calcium mobilization values of Tables 1-3): inactive; Emax [2, 6]: 380 ± 15%; Emax ([2]; read-out: mu Emax ± S.E.M., Table 2 series): 306 ± 23%; NOP pEC50 (CL95%) ([3]; CHO cells expressing human NOP, label-free EnSight reader, 60 min, 37 °C, mean of at least three experiments in duplicate, CL95% in brackets): inactive; NOP Emax ± S.E.M. ([3]; maximum picometer (pm) modification (peak), mean ± SEM of at least three experiments in duplicate): inactive; mu Emax ± S.E.M. ([4]; DMR, SEM): 151 ± 16
YGGFTGARKSARK-NH2 [Compound 3, [Tyr^1]N/OFQ(1-13)-NH2, reference compound]	9.23 (9.07–9.39)	251 ± 34	0.001	380 ± 11	266 ± 14	crc incomplete; 10 μM: 197 ± 69	crc incomplete; 10 μM: 217 ± 29	crc incomplete	197 ± 69	217 ± 29	NOP/mu CR (concentration ratio) ([1]; Table 3 series): <0.001; Emax [1, 10]: 236 ± 13%
CC(C)C[C@H](NC(=O)[C@H](CCCCN)NC(=O)[C@H](CCCNC(=N)N)NC(=O)[C@H](C)NC(=O)[C@H](CO)NC(=O)[C@H](CCCCN)NC(=O)[C@H](CCCNC(=N)N)NC(=O)[C@H](C)NC(=O)CNC(=O)[C@@H](NC(=O)[C@H](Cc1ccccc1)NC(=O)CNC(=O)CNC(=O)[C@@H](N)Cc1ccccc1)[C@@H](C)O)C(=O)N[C@@H](C)C(=O)N[C@@H](CC(N)=O)C(=O)N[C@@H](CCC(N)=O)C(=O)O [Compound 36, N/OFQ]											mu pEC50 (CL95%) ([4]; DMR, CHO cells expressing human mu receptor, 60 min, 37 °C, mean of at least three experiments in duplicate, CL95% in brackets): inactive; mu Emax ± S.E.M. ([4]; DMR): inactive; pEC50_mu ([4]; molecular formula strings CSV, value of Compound_36 repeats the DMR result of Table 4): inactive
[Dmt^1]N/OFQ(1-13)-NH2											rank order of potency [5]: NOP = mu > kappa > delta
C[C@H](NC(=O)CNC(=O)[C@H](CCN)NC(=O)[C@H](Cc1ccccc1)NC(=O)CNC(=O)CNC(=O)[C@@H](N)Cc1ccc(O)cc1)C(=O)N[C@@H](CCCNC(=N)N)C(=O)N[C@@H](CCCCN)C(=O)N[C@@H](CO)C(=O)N[C@@H](C)C(=O)N[C@@H](CCCNC(=N)N)C(=O)N[C@@H](CCCCN)C(N)=O [Compound 10, [Tyr^1,Dab^5]N/OFQ(1-13)-NH2] (H-YGGF[Dab]GARKSARK-NH2)	6.43 (6.28–6.58)		0.37	340 ± 22		crc incomplete; 10 μM: 41 ± 4		crc incomplete	41 ± 4		
C[C@H](NC(=O)CNC(=O)[C@H](Cc1ccc([N+](=O)[O-])cc1)NC(=O)[C@H](Cc1ccccc1)NC(=O)CNC(=O)CNC(=O)[C@@H](N)Cc1ccc(O)cc1)C(=O)N[C@@H](CCCNC(=N)N)C(=O)N[C@@H](CCCCN)C(=O)N[C@@H](CO)C(=O)N[C@@H](C)C(=O)N[C@@H](CCCNC(=N)N)C(=O)N[C@@H](CCCCN)C(N)=O [Compound 22, [Tyr^1,(pNO2)Phe^5]N/OFQ(1-13)-NH2] (H-YGGF[Phe(4-NO2)]GARKSARK-NH2)					305 ± 22		crc incomplete; 10 μM: 192 ± 64	crc incomplete		192 ± 64	
C[C@H](NC(=O)CNC(=O)[C@H](Cc1ccc(F)cc1)NC(=O)[C@H](Cc1ccccc1)NC(=O)CNC(=O)CNC(=O)[C@@H](N)Cc1ccc(O)cc1)C(=O)N[C@@H](CCCNC(=N)N)C(=O)N[C@@H](CCCCN)C(=O)N[C@@H](CO)C(=O)N[C@@H](C)C(=O)N[C@@H](CCCNC(=N)N)C(=O)N[C@@H](CCCCN)C(N)=O [Compound 21, [Tyr^1,(pF)Phe^5]N/OFQ(1-13)-NH2] (H-YGGF[Phe(4-F)]GARKSARK-NH2)					311 ± 22		crc incomplete; 10 μM: 256 ± 55	crc incomplete		256 ± 55	
YGGFVGARKSARK-NH2 [Compound 5, [Tyr^1,Val^5]N/OFQ(1-13)-NH2]	8.70 (8.53–8.87)		0.002	334 ± 19		crc incomplete; 10 μM: 254 ± 19		crc incomplete	254 ± 19		
CCC[C@H](NC(=O)[C@H](Cc1ccccc1)NC(=O)CNC(=O)CNC(=O)[C@@H](N)Cc1ccc(O)cc1)C(=O)NCC(=O)N[C@@H](C)C(=O)N[C@@H](CCCNC(=N)N)C(=O)N[C@@H](CCCCN)C(=O)N[C@@H](CO)C(=O)N[C@@H](C)C(=O)N[C@@H](CCCNC(=N)N)C(=O)N[C@@H](CCCCN)C(N)=O [Compound 13, [Tyr^1,Nva^5]N/OFQ(1-13)-NH2] (H-YGGF[Nva]GARKSARK-NH2)	8.43 (7.55–9.31)		0.007	358 ± 14		6.25 (5.59–6.91)					Emax [2, 6]: 313 ± 19%
Cc1cc(O)cc(C)c1C[C@H](N)C(=O)NCC(=O)NCC(=O)N[C@@H](Cc1ccccc1)C(=O)N[C@@H](Cc1ccc(N)cc1)C(=O)NCC(=O)N[C@@H](C)C(=O)N[C@@H](CCCNC(=N)N)C(=O)N[C@@H](CCCCN)C(=O)N[C@@H](CO)C(=O)N[C@@H](C)C(=O)N[C@@H](CCCNC(=N)N)C(=O)N[C@@H](CCCCN)C(N)=O [Compound 34, [Dmt^1,(pNH2)Phe^5]N/OFQ(1-13)-NH2] (H-[Dmt]GGF[Phe(4-NH2)]GARKSARK-NH2)		358 ± 15									Emax [1, 10]: 258 ± 20%
